Measured values as given in patent US7465805B2, “Isoxazoline derivatives and their use as herbicides” (Syngenta Limited, priority 2004, dated 2008).

Tests used:
[1] = tested on: Monocotyledonous and dicotyledonous test plants; assay: Herbicidal action, application pre-emergence (Example B1); type: in vivo; design: key: 10=total damage to plant; 0=no damage to plant; conditions: 1000 g/ha, scale 10=total damage to plant, 0=no damage to plant, evaluated after 9 or 13 days
Protocol: Monocotyledonous and dicotyledonous test plants were sown in sterilised standard soil in seed trays each having 96 cells. After one day (pre-emergence) or after 8 to 9 days cultivation (post-emergence) under controlled conditions in a climatic chamber (cultivation at 17/23° C.; 13 hours light; 50-60% humidity; after application at 19/24° C.), the plants were treated with an aqueous spray solution of 1000 mg/l of the active ingredient used (including 10% DMSO as solvent). The plants were grown on in the climatic chamber until the test was evaluated (10=total damage to plant, 0=no damage to plant) after 9 or 13 days.

[2] = tested on: maize (Marista); assay: Pre-emergent safening test on maize (Example E1); type: in vivo; conditions: Comp. 1.01 WP 25% AW/W alone, evaluated after 14 days
Protocol: The test plants were sown in seed trays under greenhouse conditions. A standard earth was used as the culture substrate. In a pre-emergent stage, the herbicides were applied both by themselves and in a mixture with safeners to the soil surface. The application was carried out with an aqueous suspension of the test substances, prepared from a 25% wettable powder (Example F3, b according to WO 97/34485) or from a suspension concentrate (Example F8 according to WO 97/34485), to achieve a field equivalent of 200 1/ha. The tests were evaluated after 14 days (100%=plants completely dead; 0%=no phytotoxic action on the plants).

Row | melting point | SMILES | Herbicidal action on Agrostis (damage rating) [1] | Herbicidal action on Digitaria (damage rating) [1] | Herbicidal action on Poa (damage rating) [1] | Herbicidal action on Setaria (damage rating) [1] | phytotoxic action on maize (100%=plants completely dead; 0%=no phytotoxic action on the plants) ([2]; 200 g/ha) | phytotoxic action on maize (100%=plants completely dead; 0%=no phytotoxic action on the plants) ([2]; 400 g/ha)
1 |  | CC1(C)CC(S(=N)(=O)C(Cl)c2c(F)cccc2F)=NO1 (mixture of isomers) [1.02] | 10 | 10 | 10 | 10 |  | 
2 |  | CC(Cl)OC(=O)N=S(=O)(Cc1c(F)cccc1F)C1=NOC(C)(C)C1 (mixture of isomers) [1.17] | 10 | 8 | 10 | 8 |  | 
3 |  | CC1(C)CC(S(=N)(=O)C(F)c2ccccc2OC(F)(F)F)=NO1 (mixture of isomers) [1.56] | 10 | 9 | 10 | 8 |  | 
4 | 154 to 156 °C | CC1(C)CC(S(=O)(Cc2c(F)cccc2F)=NC(=O)c2ccc(Cl)cc2)=NO1 (centres unmarked) [1.03] | 7 | 8 | 10 | 8 |  | 
5 | 143 to 144 °C | CC1(C)CC(S(=O)(Cc2c(F)cccc2F)=NC(=O)C(F)(F)F)=NO1 (centres unmarked) [1.04, 3-{2,6-difluoro-phenylmethane(N-trifluoromethyl-carbonyl)sulfoximinyl)-5,5-dimethyl-4,5-dihydroisoxazole] | 10 | 10 | 10 | 10 |  | 
6 |  | CC1(C)CC(S(=O)(=NC(=O)C(F)(F)F)C(Cl)c2c(F)cccc2F)=NO1 (centres unmarked) [1.05] | 10 | 9 | 10 | 9 |  | 
7 |  | CC(C)(C)OC(=O)N=S(=O)(Cc1c(F)cccc1F)C1=NOC(C)(C)C1 (centres unmarked) [1.06] | 9 | 7 | 6 | 10 |  | 
8 |  | CC(=O)N=S(=O)(Cc1c(F)cccc1F)C1=NOC(C)(C)C1 (centres unmarked) [1.07] | 10 | 9 | 10 | 9 |  | 
9 |  | CN=S(=O)(Cc1c(F)cccc1F)C1=NOC(C)(C)C1 (centres unmarked) [1.08, 3-{2,6-difluoro-phenylmethane(N-methyl)sulfoximinyl)-5,5-dimethyl-4,5-dihydroisoxazole] | 10 | 7 | 10 | 9 |  | 
10 |  | CC1(C)CC(S(=O)(Cc2c(F)cccc2F)=NC=O)=NO1 (centres unmarked) [1.13] | 10 | 9 | 10 | 9 |  | 
11 | 108 °C | CC1(C)CC(S(=O)(Cc2c(F)cccc2F)=NS(=O)(=O)C(F)(F)F)=NO1 (centres unmarked) [1.14, 3-{2,6-difluoro-phenylmethane(N-trifluoromethylsulphonyl)-sulfoximinyl)-5,5-dimethyl-4,5-dihydroisoxazole] | 10 | 7 | 10 | 0 |  | 
12 |  | CC1(C)CC(S(=O)(Cc2c(F)cccc2F)=N[N+](=O)[O-])=NO1 (centres unmarked) [1.15] | 10 | 9 | 10 | 8 |  | 
13 |  | CC(c1c(F)cccc1F)S(=O)(=NC(=O)C(F)(F)F)C1=NOC(C)(C)C1 (centres unmarked) [1.19] | 10 | 9 | 6 | 9 |  | 
14 |  | CC(c1c(F)cccc1F)S(=O)(=NC(=O)C(F)(F)F)C1=NOC(C)(C)C1 (centres unmarked) [1.20] | 9 | 8 | 4 | 8 |  | 
15 |  | CC1(C)CC(S(=O)(Cc2c(F)cccc2F)=NC(=O)c2cccnc2Cl)=NO1 (centres unmarked) [1.21] | 10 | 9 | 10 | 9 |  | 
16 |  | CC1(C)CC(S(=N)(=O)C(F)(F)c2c(F)cccc2F)=NO1 (centres unmarked) [1.22] | 10 | 10 | 10 | 10 |  | 
17 |  | CC1(C)CC(S(=N)(=O)Cc2ccccc2OC(F)(F)F)=NO1 (centres unmarked) [1.24] | 10 | 9 | 0 | 8 |  | 
18 |  | CC1(C)CC(S(=N)(=O)Cc2ccccc2OC(F)F)=NO1 (centres unmarked) [1.25] | 10 | 9 | 10 | 8 |  | 
19 |  | Cc1ccccc1CS(=N)(=O)C1=NOC(C)(C)C1 (centres unmarked) [1.27] | 5 | 8 | 0 | 5 |  | 
20 |  | Cc1ccc(F)c(CS(=N)(=O)C2=NOC(C)(C)C2)c1F (centres unmarked) [1.28] | 10 | 9 | 10 | 8 |  | 
21 |  | CC1(C)CC(S(=N)(=O)Cc2cccc(F)c2F)=NO1 (centres unmarked) [1.29] | 10 | 8 | 10 | 6 |  | 
22 |  | CC1(C)CC(S(=N)(=O)Cc2ccc(F)cc2F)=NO1 (centres unmarked) [1.30] | 10 | 10 | 10 | 8 |  | 
23 |  | CC1(C)CC(S(=N)(=O)Cc2ccccc2C(F)(F)F)=NO1 (centres unmarked) [1.31] | 10 | 8 | 8 | 8 |  | 
24 |  | CC1(C)CC(S(=N)(=O)Cc2c(F)cccc2C(F)(F)F)=NO1 (centres unmarked) [1.32] | 10 | 10 | 10 | 9 |  | 
25 |  | CC1(C)CC(S(=N)(=O)Cc2cc(F)ccc2F)=NO1 (centres unmarked) [1.34] | 10 | 9 | 10 | 8 |  | 
26 |  | CC1(C)CC(S(=O)(=NC(=O)c2ccccc2)C(F)c2c(F)cccc2F)=NO1 (centres unmarked) [1.35] | 10 | 8 | 10 | 8 |  | 
27 |  | CC1(C)CC(S(=O)(Cc2c(F)cccc2F)=NC(=O)c2ccccc2)=NO1 (centres unmarked) [1.36] | 10 | 5 | 0 | 7 |  | 
28 |  | CC1(C)CC(S(=N)(=O)Cc2cc(F)cc3c2OCOC3)=NO1 (centres unmarked) [1.48] | 0 | 8 | 0 | 8 |  | 
29 |  | Cn1nc(C(F)(F)F)c(CS(=N)(=O)C2=NOC(C)(C)C2)c1Cl (centres unmarked) [2.01] | 10 | 10 | 10 | 10 |  | 
30 |  | CC1(C)CC(S(=N)(=O)Cc2c(F)cccc2F)=NO1 (centres unmarked) [Comp. 1.01] | 10 | 10 | 10 | 9 | 67.5% | 62.5%
